Experimental data taken from patent US11324749B2, “Combination therapy for treatment of hematological diseases” (Incyte Corporation, priority 2018, dated 2022).

Legend:
[1] = biological target: human JAK1 (a.a. 837-1142) (Homo sapiens, UniProt P23458); assay: In vitro JAK kinase assay (HTRF), JAK1; type: biochemical; details: 1 mM ATP
Method: (§1) The catalytic activity of JAK1, JAK2, or JAK3 was assayed by measuring the phosphorylation of a biotinylated peptide. The phosphorylated peptide was detected by homogenous time resolved fluorescence (HTRF). […] Reactions are carried out at room temperature for 1 hour and then stopped with 20 μL 45 mM EDTA, 300 nM SA-APC, 6 nM Eu-Py20 in assay buffer (Perkin Elmer, Boston, Mass.). Binding to the Europium labeled antibody takes place for 40 minutes and HTRF signal was measured on a Fusion plate reader (Perkin Elmer, Boston, Mass.).

[2] = biological target: human JAK2 (a.a. 828-1132) (Homo sapiens (Human), UniProt O60674); assay: In vitro JAK kinase assay (HTRF), JAK2 versus JAK1; type: biochemical; details: IC50 ratio, 1 mM ATP
human JAK2 (a.a. 828-1132), sequence (O60674 828-1132): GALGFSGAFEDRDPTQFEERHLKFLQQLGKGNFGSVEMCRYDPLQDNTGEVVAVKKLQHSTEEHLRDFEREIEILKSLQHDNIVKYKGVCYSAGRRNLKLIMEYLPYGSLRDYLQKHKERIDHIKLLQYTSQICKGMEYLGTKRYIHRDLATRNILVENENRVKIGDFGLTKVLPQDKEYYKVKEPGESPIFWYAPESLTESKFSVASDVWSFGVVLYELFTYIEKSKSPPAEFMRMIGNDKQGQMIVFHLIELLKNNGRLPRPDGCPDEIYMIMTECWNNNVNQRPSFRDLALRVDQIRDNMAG
Method: as §1

[3] = system: Human multiple myeloma cell lines KMS12BM, OPM2, MM1.R, MM1.S and KMS11; assay: Cell Titer Glo viability of multiple myeloma cell lines; type: cell-based; details: 72 hours, compared to DMSO treated controls, all five cell lines
Method: Human multiple myeloma cell lines KMS12BM, OPM2 (DSMZ), MM1.R, MM1.S (ATCC) and KMS11 (JCRB) were seeded into white 96 well plates (Greiner Bio One) at 10^4 cells in 100 μL media. Combinations of dexamethasone (Sigma), lenalidomide (Chemscene), itacitinib, or DMSO control were then added. Doses were selected based on pilot studies designed to find sensitivities of each cell line to these agents. Each dose combination was performed in triplicate. After 72 hours, Cell Titer Glo (Promega) assays were performed as per manufacturer protocol to assess cell viability.
Statistical analyses were performed using Prism Graphpad software. P values were calculated from unpaired t tests—*p<0.05; **p<0.01; ****p<0.0001).

N#CCC1(n2cc(-c3ncnc4[nH]ccc34)cn2)CN(C2CCN(C(=O)c3ccnc(C(F)(F)F)c3F)CC2)C1 [Compound 1, {1-{1-[3-Fluoro-2-(trifluoromethyl)isonicotinoyl]piperidin-4-yl}-3-[4-(7H-pyrrolo[2,3-d]pyrimidin-4-yl)-1H-pyrazol-1-yl]azetidin-3-yl}acetonitrile]
IC50 [1]: < 10 nM | JAK2/JAK1 [2]: >10 | cell viability [3]: no change in viability
